This passage reports IC50 and SI results from article PMC5353780, “A novel benzo-heterocyclic amine derivative N30 inhibits influenza virus replication by depression of Inosine-5’-Monophospate Dehydrogenase activity” (Virology Journal, 2017).

Common to all, as to experiment: microbe, parasite or virus in culture
Common to all, as to settings: for IC50: Influenza A virus, MDCK; for SI: TC50/IC50

One experiment concerns A/hunanzhuhui/1222/2010. Type of experiment: cell-based, Influenza A virus (H3N2, amantadine-resistant).
Another experiment relates to A/fujiantongan/196/2009. In kind it is cell-based, Influenza A virus (H3N2, amantadine-resistant).
The next experiment deals with A/tianjinjinnan/15/2009. In kind it is cell-based, Influenza A virus (H1N1, oseltamivir-resistant).
The subject of experiment [1] is A/liaoningzhenxing/1109/2010. In kind it is cell-based, Influenza A virus (H1N1, oseltamivir-resistant).

Where a name gives a salt, the structure may show the parent alone. Bounds are passed on as bounds.

On to `NC12CC3CC(CC(C3)C1)C2` [AH, amantadine hydrochloride], for which the IC50 (as a rule, the concentration that inhibits the measured activity by half) came out at 57.2 ± 2.23 µM in the experiment on A/hunanzhuhui/1222/2010, 78.8 ± 3.04 µM with A/fujiantongan/196/2009, 18.2 ± 0.24 µM with A/tianjinjinnan/15/2009 and 10.13 ± 0.04 µM in experiment [1].
`CCC(CC)O[C@@H]1C=C(C(=O)O)C[C@H](N)[C@H]1NC(C)=O` [OC, oseltamivir carboxylate]: the IC50 with A/hunanzhuhui/1222/2010 amounted to 0.78 ± 0.02 µM; in the experiment on A/fujiantongan/196/2009 it was 0.28 ± 0.01 µM; in the experiment on A/tianjinjinnan/15/2009, 2.57 ± 0.1 µM; in experiment [1], 3.2 ± 0.21 µM. The SI in the experiment with A/hunanzhuhui/1222/2010 was >64.10; in the experiment with A/fujiantongan/196/2009, >178.57; with A/tianjinjinnan/15/2009, >19.45; in experiment [1], >15.58.
In the case of `NC(=O)c1ncn([C@@H]2O[C@H](CO)[C@@H](O)[C@H]2O)n1` [RBV, Ribavirin], the figures for the IC50 (in the experiment on A/fujiantongan/196/2009; with A/tianjinjinnan/15/2009; in experiment [1]) were 4.42 ± 0.74 µM, 2.54 ± 1.25 µM and 4.92 ± 3.02 µM, respectively.
Consider `O=[N+]([O-])c1ccc(CNc2ccc3ncsc3c2)cc1` [N30, N-(4-nitrophenylmethyl) benzothiazole-6-amine], for which the IC50 with A/hunanzhuhui/1222/2010 was found to be 1.76 ± 0.24 µM; in the experiment on A/fujiantongan/196/2009 it was 1.13 ± 0.43 µM; in the experiment on A/tianjinjinnan/15/2009 it was 1.67 ± 0.49 µM; in experiment [1], 3.43 ± 3.36 µM. Besides, the SI stood at 37.89 in the experiment on A/hunanzhuhui/1222/2010, 59.00 in the experiment on A/fujiantongan/196/2009, 39.92 with A/tianjinjinnan/15/2009 and 19.44 in experiment [1].
